Values quoted from earlier work, collected in patent US10085973B2, “Pharmaceutical composition containing a compound having a thrombopoietin receptor agonistic activity” (Shionogi & Co., Ltd., priority 2012, dated 2018).
Like-named read-outs stand apart in the source and are kept apart here.

System: chronic liver disease patients with platelet count of less than 5×10^4/μL
Conditions: cited from earlier work

CC1=NN(c2ccc(C)c(C)c2)C(=O)/C1=N\Nc1cccc(-c2cccc(C(=O)O)c2)c1O [Eltrombopag]
avoidance of platelet transfusion (active drug group, administered for 2 weeks before invasive procedures): 72%
incidence of portal vein thrombosis (active drug group): 4%
risk of development of portal vein thrombosis (group having platelet count of 20×10^4/μL or higher during the investigation period): 10.6%
risk of development of portal vein thrombosis (group with platelet count of less than 20×10^4/μL): 1.2%
risk of portal vein thrombosis, group 20×10^4/μL or higher vs group less than 20×10^4/μL (human, in vivo): about 9 times
cases with platelet count 20×10^4/μL or higher at the time of development of portal vein thrombosis (out of 6 cases in the active drug group): 5
